In the supplement of paper PMC10920090:

Experiments:
MDA-MB-231 [1] = test: drug sensitivity score (DSS), cytotoxicity CellTox Green; higher = more cytotoxic; extreme values may be limits of the assay; conditions: 72 h
MDA-MB-231 [2] = test: drug sensitivity score (DSS), cell viability CellTiter-Glo; higher = more sensitive; extreme values may be limits of the assay; conditions: 72 h
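Throughout, for drug sensitivity score (DSS), cytotoxicity CellTox Green: DSS summarises each dose–response curve by combining IC50, EC50, maximal inhibition and efficacy across drug concentrations.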

Row | Compound | drug sensitivity score (MDA-MB-231 [1]; shRNA: shPPFIA1_1) [DSS] | drug sensitivity score (MDA-MB-231 [1]; shRNA: shScramble) [DSS] | drug sensitivity score (MDA-MB-231 [2]; shRNA: shPPFIA1_1) [DSS] | drug sensitivity score (MDA-MB-231 [2]; shRNA: shScramble) [DSS]
1 | CC[C@@H]1C(=O)OC[C@@H]1Cc1cncn1C [Pilocarpine] | 0 | 0 | 0 | 0
2 | CC(C)(C#N)c1cc(Cn2cncn2)cc(C(C)(C)C#N)c1 [Anastrozole] | 0 | 0 | 0 | 0
3 | Nc1ccn([C@@H]2O[C@H](CO)[C@@H](O)[C@@H]2O)c(=O)n1 [Cytarabine] | 0 | 0 | 0 | 1.6
4 | CCC(C)n1ncn(-c2ccc(N3CCN(c4ccc(OCC5COC(Cn6cncn6)(c6ccc(Cl)cc6Cl)O5)cc4)CC3)cc2)c1=O (stereo not drawn) [Itraconazole] | 0 | 0 | 4.8 | 5.6
5 | COc1cc2nccc(Oc3ccc(NC(=O)C4(C(=O)Nc5ccc(F)cc5)CC4)cc3)c2cc1OC [Cabozantinib] | 0 | 0 | 3.2 | 1.1
6 | C[C@@H]1CN(CC(=O)Nc2ccc3c(c2)Cc2cccc(-c4cc(=O)cc(N5CCOCC5)o4)c2S3)C[C@H](C)O1 | 0.2 | 0 | 0 | 3.6
7 | COc1cc(CCc2cc(NC(=O)c3ccc(N4CC(C)NC(C)C4)cc3)n[nH]2)cc(OC)c1 (stereo not drawn) [AZD4547] | 0 | 0 | 0 | 0
8 | CN1CCN(c2nc(C3=C(c4c[nH]c5ccccc45)C(=O)NC3=O)c3ccccc3n2)CC1 [Sotrastaurin] | 0.7 | 0 | 1 | 0
9 | NC(=O)c1ccc(I)c([N+](=O)[O-])c1 [Iniparib] | 0 | 0 | 0 | 0
10 | FC(F)(F)c1ccc(/C=C/c2nc(COc3ccc(CCCCn4ccnn4)cc3)co2)cc1 [Mubritinib] | 0 | 0 | 2.1 | 2
11 | O=C(O)CSc1cc(NS(=O)(=O)c2ccc(Br)cc2)c2ccccc2c1O [UMI-77] | 8 | 18.7 | 3.2 | 10.8
12 | C=CC(=O)N1CCC(Oc2cc3c(Nc4ccc(Cl)c(Cl)c4F)ncnc3cc2OC)CC1 [Poziotinib] | 0 | 0 | 3.1 | 0
13 | O=C(/C=C/c1cccnc1)NCCCCC1CCN(C(=O)c2ccccc2)CC1 [Daporinad] | 0 | 0 | 24.6 | 26.8
14 | Cn1cnc2c(F)c(Nc3ccc(Br)cc3F)c(C(=O)NOCCO)cc21 [Binimetinib] | 0 | 2.2 | 0 | 2.7
15 | O=S(=O)(c1cccc2cnccc12)N1CCCNCC1 [Fasudil] | 1.6 | 2.1 | 2.6 | 1.4
16 | C[C@]1(c2nc3c(C(N)=O)cccc3[nH]2)CCCN1 [Veliparib] | 0 | 0 | 0 | 0
17 | Cc1nc(-c2cn3c(n2)-c2ccc(-c4cnn(C(C)(C)C(N)=O)c4)cc2OCC3)n(C(C)C)n1 [Taselisib] | 0 | 0 | 0 | 0.9
18 | CC(C)n1cnc2c(NCCc3ccc(O)cc3)nc(-c3csc4ccccc34)nc21 [StemRegenin 1] | 0.8 | 0.4 | 2.3 | 0.2
19 | O=C(O)C1(C(=O)O)CCC1.[NH2-].[NH2-].[Pt+2] [Carboplatin] | 0 | 0 | 0 | 0
20 | CNC(=O)c1ccc(N2C(=S)N(c3cnc(C#N)c(C(F)(F)F)c3)C(=O)C23CCC3)cc1F [ARN 509] | 0 | 0 | 0 | 0.4
21 | COc1ccc(CCc2nc3cc(-c4c(C)noc4C)ccc3n2C[C@H](C)N2CCOCC2)cc1Cl [SGC-CBP30] | 0 | 0 | 0 | 2.4
22 | CN[C@@H]1C[C@H]2O[C@@](C)([C@@H]1OC)n1c3ccccc3c3c4c(c5c6ccccc6n2c5c31)C(=O)N[C@H]4O [UCN-01] | 16.6 | 12.2 | 17 | 21.4
23 | Cc1cc(C(C)Nc2ccccc2)c2nc(N3CCOCC3)cc(=O)n2c1 (stereo not drawn) [TGX-221] | 0.6 | 0 | 0 | 3.2
24 | CN(CC(=O)N(Cc1ccc(C2CCCCC2)cc1)c1ccc(C(=O)O)cc1)S(=O)(=O)c1c(F)c(F)c(F)c(F)c1F [SH-4-54] | 7.3 | 7.7 | 3.8 | 5.7

Row | Compound | drug sensitivity score (MDA-MB-231 [1]; shRNA: shPPFIA1_1) [DSS] | drug sensitivity score (MDA-MB-231 [1]; shRNA: shScramble) [DSS] | drug sensitivity score (MDA-MB-231 [2]; shRNA: shPPFIA1_1) [DSS] | drug sensitivity score (MDA-MB-231 [2]; shRNA: shScramble) [DSS]
25 | O=C(O)c1ccc(CN2CCC(CN[C@@H]3C[C@H]3c3ccccc3)CC2)cc1 | 0 | 0 | 0 | 0
26 | NC(=O)Nc1sc(-c2ccc(F)cc2)cc1C(N)=O [TPCA-1] | 0.9 | 0 | 0 | 1.9
27 | CO[C@@H](C(=O)N1Cc2[nH]nc(NC(=O)c3ccc(N4CCN(C)CC4)cc3)c2C1)c1ccccc1 [Danusertib] | 0 | 0.2 | 0 | 0
28 | C=C(c1ccc(C(=O)O)cc1)c1cc2c(cc1C)C(C)(C)CCC2(C)C [Bexarotene] | 0 | 0 | 0 | 0
29 | COc1cc(N2CCC(N3CCN(C)CC3)CC2)ccc1Nc1ncc(Cl)c(Nc2ccccc2P(C)(C)=O)n1 [Brigatinib] | 1.8 | 3.6 | 6.4 | 0.7
30 | Cc1cc(C)c(/C=C2\C(=O)Nc3ccccc32)[nH]1 [Semaxanib] | 0.2 | 3.5 | 0 | 0
31 | C[C@@H]1CCN(C(=O)CC#N)C[C@@H]1N(C)c1ncnc2[nH]ccc12 [Tofacitinib] | 0.9 | 0.9 | 0 | 0
32 | COc1ccc(C[C@H](NC(=O)[C@H](C)NC(=O)CN2CCOCC2)C(=O)N[C@@H](Cc2ccccc2)C(=O)C2(C)CO2)cc1 (stereo in doubt) [ONX-0914] | 19.1 | 18.6 | 17.1 | 18.1
33 | O=C(c1ccc(/C=C/c2n[nH]c3ccccc23)cc1)N1CCNCC1 [KW-2449] | 0 | 0 | 0 | 0
34 | Cn1ncnc1[C@H]1c2n[nH]c(=O)c3cc(F)cc(c23)N[C@@H]1c1ccc(F)cc1 [Talazoparib] | 0 | 0 | 0 | 0.4
35 | CCCCC(=O)OCC(=O)[C@]1(O)Cc2c(O)c3c(c(O)c2[C@@H](O[C@H]2C[C@H](NC(=O)C(F)(F)F)[C@H](O)[C@H](C)O2)C1)C(=O)c1c(OC)cccc1C3=O [Valrubicin] | 0 | 0 | 0.8 | 7
36 | CN1CCN(c2ccc3nc(-c4c(N)c5c(F)cccc5[nH]c4=O)[nH]c3c2)CC1 [Dovitinib] | 0 | 0 | 0 | 0
37 | COc1cc(Nc2ncc3c(n2)-c2ccc(Cl)cc2C(c2c(F)cccc2OC)=NC3)ccc1C(=O)O [Alisertib] | 0.7 | 0 | 0.8 | 0.1
38 | CC[C@@]1(O)C(=O)OCc2c1cc1n(c2=O)Cc2cc3c(CN(C)C)c(O)ccc3nc2-1 [Topotecan] | 0.8 | 1.5 | 0 | 5.8
39 | COc1ccc(S(=O)(=O)Nc2cccnc2Nc2ccc(O)cc2)cc1 [ABT-751] | 2.1 | 0.1 | 0 | 4.5
40 | C[C@]12CC[C@@H]3c4ccc(O)cc4C[C@@H](CCCCCCCCC[S+]([O-])CCCC(F)(F)C(F)(F)F)[C@H]3[C@@H]1CC[C@@H]2O (stereo partly drawn) [Fulvestrant] | 0 | 0 | 0 | 0
41 | CCN(CC)CCN(Cc1ccc(-c2ccc(C(F)(F)F)cc2)cc1)C(=O)Cn1c(SCc2ccc(F)cc2)nc(=O)c2c1CCC2 [Darapladib] | 13.1 | 0 | 0 | 0
42 | CN[C@@H](C)C(=O)N[C@H](C(=O)N1CCC[C@H]1c1nc(C(=O)c2ccc(F)cc2)cs1)C1CCCCC1 [LCL161] | 40.9 | 24.4 | 20.5 | 2.5
43 | OC[C@H]1O[C@@H](n2cnc3c2N=CNC[C@H]3O)C[C@@H]1O [Pentostatin] | 0 | 0 | 0.5 | 0.2
44 | Cc1cccc(-c2nn3c(c2-c2ccnc4ccc(C(N)=O)cc24)CCC3)n1 [Galunisertib] | 0 | 0 | 0 | 0
45 | CCCCNc1ncc(C(=O)NCc2ccc(-n3ccnc3)cc2)c(NC2CCC(O)CC2)n1 (stereo not drawn) [UNC2881] | 0 | 0 | 0 | 0.5
46 | Cn1cc(-c2ccc3nnc(Sc4ccc5ncccc5c4)n3n2)cn1 [SGX-523] | 0 | 0.9 | 0.9 | 0
47 | CC(C)(O)CC(=O)NCCn1ccc2ncnc(Nc3ccc(Oc4cccc(C(F)(F)F)c4)c(Cl)c3)c21 [TAK-285] | 0 | 0 | 0.9 | 0
